Reference: patent US11524938B2, “Aromatic sulfonamide derivatives” (Bayer Pharma Aktiengesellschaft, priority 2016, dated 2022)

Target: T1, human P2X4 (Homo sapiens, UniProt Q99571)
T1 sequence (Q99571 1-388): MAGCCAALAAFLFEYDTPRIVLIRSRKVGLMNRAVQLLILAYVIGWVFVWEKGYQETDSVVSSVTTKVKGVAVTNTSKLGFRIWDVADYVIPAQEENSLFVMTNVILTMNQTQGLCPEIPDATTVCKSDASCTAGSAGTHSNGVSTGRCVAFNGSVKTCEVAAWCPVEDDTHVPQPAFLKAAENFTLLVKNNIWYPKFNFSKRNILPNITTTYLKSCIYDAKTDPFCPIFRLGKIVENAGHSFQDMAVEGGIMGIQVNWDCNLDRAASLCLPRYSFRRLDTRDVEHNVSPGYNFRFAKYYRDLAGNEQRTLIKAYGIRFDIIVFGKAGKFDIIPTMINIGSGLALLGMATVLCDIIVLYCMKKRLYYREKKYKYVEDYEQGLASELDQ
Assay: Human P2X4 HEK Cell FLIPR Assay
Assay type: cell-based
Conditions: agonist Bz-ATP at EC80; for Emax: HEK293, HEK293 cells, read-out: Human P2X4 HEK Cells (FLIPR Assay) avg Efficacy [%]; for IC50: individual values listed where some fall outside detection range
How it was run: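 HEK293 cells stably expressing human P2X4, Fluo8-AM loaded 30 min at 37° C, then compound 30 min at room temperature (0.5% DMSO, pH 7.4 buffer with 1.8 mM CaCl2). Bz-ATP at its daily-determined EC80 added; calcium fluorescence read over 120 sec; IC50 from peak RFU normalized to agonist control, triplicates.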

[1] = percentage of maximal inhibition

SMILES | Emax [1] [%] | IC50 (HEK293 cells) [µM] | Human P2X4 HEK Cells (FLIPR Assay) avg Efficacy [%] (HEK293 cells, percentage of maximal inhibition)
Cc1ccccc1CC(=O)Nc1ccc(-n2cc(Cl)cn2)c(S(N)(=O)=O)c1 [Example 173, N-[4-(4-Chloro-1H-pyrazol-1-yl)-3-sulfamoylphenyl]-2-(2-methylphenyl)acetamide] | 80 | 0.028 | 
NS(=O)(=O)c1cc(NC(=O)Cc2ccccc2Cl)ccc1-n1ccc(C(F)F)n1 [Example 12, 2-(2-Chlorophenyl)-N-{4-[3-(difluoromethyl)-1H-pyrazol-1-yl]-3-sulfamoyl-phenyl}acetamide] | 34 | > 25 | 
NS(=O)(=O)c1cc(NC(=O)Cc2ccccc2Cl)ccc1-c1cnn(C2CNC2)c1 [Example 271, N-{4-[1-(Azetidin-3-yl)-1H-pyrazol-4-yl]-3-sulfamoylphenyl}-2-(2-chlorophenyl)-acetamide] | 82 | 1.15 | 
COc1ccc(Cl)c(CC(=O)Nc2ccc(-n3cc(C(F)(F)F)cn3)c(S(N)(=O)=O)c2)c1 [Example 138, 2-(2-Chloro-5-methoxyphenyl)-N-{3-sulfamoyl-4-[4-(trifluoromethyl)-1H-pyrazol-1-yl]phenyl}acetamide] | 100 | 0.238 | 
CN(C(=O)c1cnn(-c2ccc(NC(=O)Cc3ccccc3Cl)cc2S(N)(=O)=O)c1)C1CC1 [Example 497, 1-(4-{[(2-Chlorophenyl)acetyl]amino}-2-sulfamoylphenyl)-N-cyclopropyl-N-methyl-1H-pyrazole-4-carboxamide] | 97 | 0.054 | 
N#Cc1cnn(-c2ccc(NC(=O)Cc3cccc(O)c3Cl)cc2S(N)(=O)=O)c1 [Example 554, 2-(2-Chloro-3-hydroxyphenyl)-N-[4-(4-cyano-1H-pyrazol-1-yl)-3-sulfamoylphenyl]acetamide] | 83 | 0.383 | 
NS(=O)(=O)c1cc(NC(=O)Cc2ccc(F)cc2F)ccc1-c1cncc(C(F)(F)F)c1 [Example 450, 2-(2,4-Difluorophenyl)-N-{3-sulfamoyl-4-[5-(trifluoromethyl)pyridin-3-yl]phenyl}acetamide] | 72 | 0.148 | 
NS(=O)(=O)c1cc(NC(=O)Cc2ccccc2Cl)ccc1-n1cnc(C2CC2)c1 [Example 250, 2-(2-Chlorophenyl)-N-[4-(4-cyclopropyl-1H-imidazol-1-yl)-3-sulfamoylphenyl]-acetamide] | 82 | 0.193 | 
NS(=O)(=O)c1cc(NC(=O)Cc2ccc(O)cc2)ccc1-n1cc(F)cn1 [Example 150, N-[4-(4-Fluoro-1H-pyrazol-1-yl)-3-sulfamoylphenyl]-2-(4-hydroxyphenyl)acetamide] | 80 | 0.433 | 
NS(=O)(=O)c1cc(NC(=O)Cc2ccccc2OC(F)(F)F)ccc1-n1cc(C(F)(F)F)cn1 [Example 129, N-{3-Sulfamoyl-4-[4-(trifluoromethyl)-1H-pyrazol-1-yl]phenyl}-2-[2-(trifluoro-methoxy)phenyl]acetamide] | 89 | 0.157 | 
CCOc1ccccc1CC(=O)Nc1ccc(-n2cc(C(F)(F)F)cn2)c(S(N)(=O)=O)c1 [Example 176, 2-(2-Ethoxyphenyl)-N-{3-sulfamoyl-4-[4-(trifluoromethyl)-1H-pyrazol-1-yl]phenyl}acetamide] | 71 | 0.268 | 
CC(C(=O)Nc1cnn(-c2ccc(NC(=O)Cc3ccccc3Cl)cc2S(N)(=O)=O)c1)C(F)(F)F (single isomer, unassigned) [Example 509, N-[1-(4-{[(2-Chlorophenyl)acetyl]amino}-2-sulfamoylphenyl)-1H-pyrazol-4-yl]-3,3,3-trifluoro-2-methylpropanamide] | 71 | 0.326 | 
NS(=O)(=O)c1cc(NC(=O)Cc2ccc(C(F)F)cc2)ccc1-c1cncc(F)c1 [Example 477, 2-[4-(Difluoromethyl)phenyl]-N-[4-(5-fluoropyridin-3-yl)-3-sulfamoylphenyl]acetamide] | 91 | 0.259 | 
NS(=O)(=O)c1cc(NC(=O)Cc2ccccc2Cl)ccc1-n1cc(Cl)cc(Cl)c1=O [Example 3, 2-(2-Chlorophenyl)-N-[4-(3,5-dichloro-2-oxopyridin-1(2H)-yl)-3-sulfamoylphenyl]-acetamide] | 76 | 0.942 | 
NS(=O)(=O)c1cc(NC(=O)C(O)c2ccccc2Cl)ccc1-c1cnn(C(F)F)c1 (centres unmarked) [Example 324, 2-(2-Chlorophenyl)-N-{4-[1-(difluoromethyl)-1H-pyrazol-4-yl]-3-sulfamoylphenyl}-2-hydroxyethanamide] | 59 | 3.05 | 
NS(=O)(=O)c1cc(NC(=O)Cc2ccccc2Cl)ccc1-c1c[nH]c(C(=O)C(F)F)c1 [Example 528, 2-(2-Chlorophenyl)-N-{4-[5-(difluoroacetyl)-1H-pyrrol-3-yl]-3-sulfamoylphenyl}acetamide] | 95 | 0.042 | 

SMILES | Emax [1] [%] | IC50 (HEK293 cells) [µM] | Human P2X4 HEK Cells (FLIPR Assay) avg Efficacy [%] (HEK293 cells, percentage of maximal inhibition)
NS(=O)(=O)c1cc(NC(=O)Cc2ccccc2C(F)F)ccc1-n1cc(F)cn1 [Example 51, 2-[2-(Difluoromethyl)phenyl]-N-[4-(4-fluoro-1H-pyrazol-1-yl)-3-sulfamoyl-phenyl]acetamide] | 94 | 0.134 | 
NS(=O)(=O)c1cc(NC(=O)Cc2ccccc2Cl)ccc1-n1nnc2c(F)cc(F)cc21 [Example 481, 2-(2-Chlorophenyl)-N-[4-(4,6-difluoro-1H-benzotriazol-1-yl)-3-sulfamoylphenyl]acetamide] | 103 | 0.05 | 
NS(=O)(=O)c1cc(NC(=O)Cc2ccccc2F)ccc1-n1cc(NCC(F)F)cn1 [Example 514, N-(4-{4-[(2,2-Difluoroethyl)amino]-1H-pyrazol-1-yl}-3-sulfamoylphenyl)-2-(2-fluorophenyl)acetamide] | 102 | 0.106 | 
NS(=O)(=O)c1cc(NC(=O)Cc2ccccc2OC(F)F)ccc1-n1cnc(C(F)(F)F)n1 [Example 57, 2-[2-(Difluoromethoxy)phenyl]-N-{3-sulfamoyl-4-[3-(trifluoromethyl)-1H-1,2,4-triazol-1-yl]phenyl}acetamide] | 71 | 0.141 | 
NS(=O)(=O)c1cc(NC(=O)Cc2ccccc2F)ccc1-c1nnc(C2CC2)o1 [Example 376, N-[4-(5-Cyclopropyl-1,3,4-oxadiazol-2-yl)-3-sulfamoylphenyl]-2-(2-fluorophenyl)-acetamide] | 98 | 0.009 | 
NS(=O)(=O)c1cc(NC(=O)Cc2ccccc2F)ccc1-n1cc(Br)cn1 [Example 63, N-[4-(4-Bromo-1H-pyrazol-1-yl)-3-sulfamoylphenyl]-2-(2-fluorophenyl)acetamide] | 87 | 0.13 | 
COc1ccc(Cl)c(CC(=O)Nc2ccc(-n3cc(Cl)cn3)c(S(N)(=O)=O)c2)c1 [Example 101, 2-(2-Chloro-5-methoxyphenyl)-N-[4-(4-chloro-1H-pyrazol-1-yl)-3-sulfamoylphenyl]-acetamide] | 83 | 0.202 | 
NS(=O)(=O)c1cc(NC(=O)Cc2ccccc2Cl)ccc1-n1cncn1 [Example 16, 2-(2-Chlorophenyl)-N-[3-sulfamoyl-4-(1H-1,2,4-triazol-1-yl)phenyl]acetamide] | 89 | 0.262 | 
N#Cc1cnn(-c2ccc(NC(=O)Cc3cccc(F)c3)cc2S(N)(=O)=O)c1 [Example 185, N-[4-(4-Cyano-1H-pyrazol-1-yl)-3-sulfamoylphenyl]-2-(3-fluorophenyl)acetamide] | 71 | 0.248 | 
Cc1nn(C)cc1-c1ccc(NC(=O)Cc2ccccc2Cl)cc1S(N)(=O)=O [Example 358, 2-(2-Chlorophenyl)-N-[4-(1,3-dimethyl-1H-pyrazol-4-yl)-3-sulfamoylphenyl]acetamide] | 88 | 0.074 | 
CC1(Cn2cc(-c3ccc(NC(=O)Cc4ccccc4Cl)cc3S(N)(=O)=O)cn2)COC1 [Example 276, 2-(2-Chlorophenyl)-N-(4-{1-[(3-methyloxetan-3-yl)methyl]-1H-pyrazol-4-yl}-3-sulfamoylphenyl)acetamide] | 96 | 0.195 | 
NS(=O)(=O)c1cc(NC(=O)Cc2ccccc2Cl)ccc1-c1cnn(CC2CCO2)c1 (centres unmarked) [Example 283, 2-(2-Chlorophenyl)-N-(4-{1-[oxetan-2-ylmethyl]-1H-pyrazol-4-yl}-3-sulfamoylphenyl)-acetamide] | 94 | 0.06 | 
NS(=O)(=O)c1cc(NC(=O)Cc2ccccc2F)ccc1-n1cc(CC(F)(F)F)cn1 [Example 519, 2-(2-Fluorophenyl)-N-{3-sulfamoyl-4-[4-(2,2,2-trifluoroethyl)-1H-pyrazol-1-yl]phenyl}acetamide] | 82 | 0.105 | 
CC(C(=O)Nc1cnn(-c2ccc(NC(=O)Cc3ccccc3Cl)cc2S(N)(=O)=O)c1)C(F)(F)F (single isomer, unassigned) [Example 510, N-[1-(4-{[(2-Chlorophenyl)acetyl]amino}-2-sulfamoylphenyl)-1H-pyrazol-4-yl]-3,3,3-trifluoro-2-methylpropanamide] |  | 0.439 | 73
N#Cc1cnn(-c2ccc(NC(=O)Cc3ccccc3C(F)(F)F)cc2S(N)(=O)=O)c1 [Example 184, N-[4-(4-Cyano-1H-pyrazol-1-yl)-3-sulfamoylphenyl]-2-[2-(trifluoromethyl)-phenyl]acetamide] | 96 | 0.067 | 
